Our source for the inhibition and IC50 values is ChEMBL document CHEMBL4414609, “High-Affinity Alkynyl Bisubstrate Inhibitors of Nicotinamide N-Methyltransferase (NNMT)” (J Med Chem, 2019).

The target in data set [1] is T1, COMT (catechol O-methyltransferase) (Homo sapiens, UniProt P21964).
T1 sequence (P21964 whole entry): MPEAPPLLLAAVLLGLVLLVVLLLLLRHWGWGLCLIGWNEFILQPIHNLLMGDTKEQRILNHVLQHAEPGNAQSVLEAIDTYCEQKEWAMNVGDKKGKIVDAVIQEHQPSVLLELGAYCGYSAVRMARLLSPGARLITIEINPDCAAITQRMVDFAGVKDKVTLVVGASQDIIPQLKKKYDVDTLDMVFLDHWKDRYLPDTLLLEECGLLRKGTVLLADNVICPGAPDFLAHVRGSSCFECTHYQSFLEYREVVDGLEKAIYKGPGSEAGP
Put plainly: Inhibition of human COMT expressed in Escherichia coli at 1 uM assessed as reduction in SAH level using pyrocatechol as substrate in presence of SAM incubated for 15 mins by LC-MS/MS analysis relative to control. To be noted: recombinant human COMT expressed in Escherichia coli, probe pyrocatechol.

The target of data set [2] is T2, Histone-lysine N-methyltransferase EHMT2 (Homo sapiens, UniProt Q96KQ7).
T2 sequence (Q96KQ7 whole entry): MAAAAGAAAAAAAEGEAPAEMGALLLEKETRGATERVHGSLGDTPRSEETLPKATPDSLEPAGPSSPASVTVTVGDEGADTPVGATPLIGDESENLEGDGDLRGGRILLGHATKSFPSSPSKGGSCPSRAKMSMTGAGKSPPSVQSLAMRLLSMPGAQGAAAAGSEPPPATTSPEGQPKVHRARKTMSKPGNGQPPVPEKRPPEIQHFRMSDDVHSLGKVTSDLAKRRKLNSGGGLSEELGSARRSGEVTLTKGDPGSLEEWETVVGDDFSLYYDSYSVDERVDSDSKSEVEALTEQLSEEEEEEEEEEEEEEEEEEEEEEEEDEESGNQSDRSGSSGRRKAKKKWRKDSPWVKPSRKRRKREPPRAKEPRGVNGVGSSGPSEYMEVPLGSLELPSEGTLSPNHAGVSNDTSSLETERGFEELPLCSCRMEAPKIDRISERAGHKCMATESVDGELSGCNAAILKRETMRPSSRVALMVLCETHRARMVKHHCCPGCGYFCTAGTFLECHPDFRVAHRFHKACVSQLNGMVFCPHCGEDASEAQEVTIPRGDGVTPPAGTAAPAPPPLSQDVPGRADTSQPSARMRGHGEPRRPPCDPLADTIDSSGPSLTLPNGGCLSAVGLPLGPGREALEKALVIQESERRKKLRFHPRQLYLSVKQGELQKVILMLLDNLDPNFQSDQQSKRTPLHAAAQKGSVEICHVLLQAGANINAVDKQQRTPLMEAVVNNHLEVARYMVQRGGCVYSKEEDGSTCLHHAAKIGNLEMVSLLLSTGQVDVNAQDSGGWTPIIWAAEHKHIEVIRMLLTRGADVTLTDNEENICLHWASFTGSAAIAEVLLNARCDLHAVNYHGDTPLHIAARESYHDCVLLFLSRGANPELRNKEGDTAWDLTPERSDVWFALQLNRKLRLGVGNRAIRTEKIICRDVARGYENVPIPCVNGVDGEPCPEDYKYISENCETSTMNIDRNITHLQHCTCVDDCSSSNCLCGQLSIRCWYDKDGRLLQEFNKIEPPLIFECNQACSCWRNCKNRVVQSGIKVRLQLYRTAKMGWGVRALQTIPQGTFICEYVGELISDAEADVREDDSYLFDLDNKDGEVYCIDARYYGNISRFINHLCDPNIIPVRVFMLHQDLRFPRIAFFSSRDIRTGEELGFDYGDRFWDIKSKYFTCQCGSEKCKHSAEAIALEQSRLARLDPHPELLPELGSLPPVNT
Put plainly: Inhibition of human G9a expressed in Escherichia coli assessed as reduction in methylated histone H3 full length using histone H3 full length level as substrate in presence of [3H] SAM incubated for 120 mins by scintillation counting.

The target of data set [3] is Histone-lysine N-methyltransferase ASH1L (Homo sapiens, UniProt Q9NR48). The data set is described as follows: Inhibition of human ASH1L expressed in Escherichia coli assessed as reduction in methylated polynucleosome level using polynucleosome as substrate in presence of [3H] SAM incubated for 15 mins by scintillation counting.
In data set [4] the target is T3, TPMT (thiopurine S-methyltransferase) (Homo sapiens, UniProt P51580).
T3 sequence (P51580 whole entry): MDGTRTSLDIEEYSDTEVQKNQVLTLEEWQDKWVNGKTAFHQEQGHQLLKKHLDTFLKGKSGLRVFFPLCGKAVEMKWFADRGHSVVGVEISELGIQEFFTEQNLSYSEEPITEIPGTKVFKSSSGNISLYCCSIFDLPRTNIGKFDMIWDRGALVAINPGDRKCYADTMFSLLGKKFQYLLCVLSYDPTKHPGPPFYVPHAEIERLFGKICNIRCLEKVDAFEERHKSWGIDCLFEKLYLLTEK
Put plainly: Inhibition of human TPMT expressed in Escherichia coli assessed as reduction in SAH level at 10 uM using 6-mercaptopurine as substrate in presence of SAM incubated for 30 mins by LC-MS/MS analysis relative to control. To be noted: recombinant human TPMT expressed in Escherichia coli, probe 6-mercaptopurine.

Data set [5] deals with HNMT (histamine N-methyltransferase) (Homo sapiens, UniProt P50135). Put plainly: Inhibition of human HNMT expressed in Escherichia coli at 10 uM assessed as reduction in SAH level using histamine as substrate in presence of SAM incubated for 15 mins by LC-MS/MS analysis relative to control. To be noted: recombinant human HNMT expressed in Escherichia coli, probe histamine.
HNMT (histamine N-methyltransferase), sequence (P50135 whole entry): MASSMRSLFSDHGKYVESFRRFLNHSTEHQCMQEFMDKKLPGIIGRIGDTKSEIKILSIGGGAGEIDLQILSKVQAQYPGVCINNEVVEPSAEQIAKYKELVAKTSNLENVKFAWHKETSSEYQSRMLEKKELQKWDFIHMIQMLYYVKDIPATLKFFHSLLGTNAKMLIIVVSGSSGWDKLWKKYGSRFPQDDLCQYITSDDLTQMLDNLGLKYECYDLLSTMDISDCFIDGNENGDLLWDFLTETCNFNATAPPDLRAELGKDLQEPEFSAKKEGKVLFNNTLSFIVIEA

As to `NC(=O)c1cccc(C#C[C@@H](CC[C@H](N)C(=O)O)C[C@H]2O[C@@H](n3cnc4c(N)ncnc43)[C@H](O)[C@@H]2O)c1`, in data set [1], the inhibition at 0.25 h, 1 µM was 0%. Also, the IC50 in data set [2] and in data set [3] was more than 10 µM in each case. In addition, the inhibition at 0.5 h, 10 µM in data set [4] is 76%. Also, the inhibition at 0.25 h, 10 µM in data set [5] was determined as 2%.
